What all share (format): cell-based
In one series the target is T1, PPARα (Homo sapiens, UniProt Q07869).
T1 construct: full-length PPARs plasmid DNA; expressed in transfected cells; host or cells: CV-1 cells
T1 sequence (Q07869 1-468): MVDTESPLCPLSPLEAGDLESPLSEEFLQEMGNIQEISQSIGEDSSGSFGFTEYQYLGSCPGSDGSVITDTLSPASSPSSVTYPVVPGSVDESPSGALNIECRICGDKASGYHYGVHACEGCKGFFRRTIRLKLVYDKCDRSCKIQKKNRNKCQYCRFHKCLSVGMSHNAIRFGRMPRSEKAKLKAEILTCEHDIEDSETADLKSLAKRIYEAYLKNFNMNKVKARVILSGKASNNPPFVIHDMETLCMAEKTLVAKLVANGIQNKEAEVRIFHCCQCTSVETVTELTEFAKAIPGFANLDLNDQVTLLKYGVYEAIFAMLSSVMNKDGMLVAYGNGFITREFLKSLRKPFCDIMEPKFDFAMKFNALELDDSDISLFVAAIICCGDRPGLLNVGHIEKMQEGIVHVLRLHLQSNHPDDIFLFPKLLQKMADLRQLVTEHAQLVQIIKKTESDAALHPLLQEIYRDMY
Kind of series: Transfection assay (luciferase reporter) in CV-1 cells, PPARα. To be noted: full-length PPAR plasmid, luciferase normalized with β-galactosidase. The procedure: (§1) The compounds prepared in Examples were tested for PPARδ activity by a transfection assay. In addition, the compounds were tested for selectivity for PPARα and PPARγ, the subtypes of PPARs, and also tested for toxicity by a MTT assay.
(§2) A transfection assay was performed using CV-1 cells. The culture of the cells was performed using a DMEM medium (10% FBS, DBS (delipidated) and 1% penicillin/streptomycin) on a 96-well plate in a 5% carbon dioxide-containing incubator at 37° C. The test was performed in four steps consisting of cell inoculation, transfection, treatment of the compounds, and analysis of results. Specifically, CV-1 cells were inoculated onto a 96-well plate at a concentration of 5,000 cells/well, and after 24 hours, the cells were transfected. In the cell transfection, full-length PPARs plasmid DNA, reporter DNA that has luciferase activity and thus allows the identification of PPARs, and β-galactosidase DNA that provides the information of transfection efficiency, were used as transfection reagents. Each of the compounds developed in the present invention was dissolved in dimethylsulfoxide (DMSO) and transfected into the cells at various concentrations using media. The cells were cultured in an incubator for 24 and then lysed with lysis buffer. The lysed cells were measured for luciferase and β-galactosidase activities using a luminometer and a microplate reader. The measured luciferase values were normalized with the β-galactosidase values and graphed. From the graph, EC50 values were determined.
In general terms: In a reporter assay the amount or activity of a reporter protein is the signal.

Another series addresses T2, PPARγ (Homo sapiens, UniProt P37231).
T2 construct: full-length PPARs plasmid DNA; expressed in transfected cells; host or cells: CV-1 cells
T2 sequence (P37231 1-505): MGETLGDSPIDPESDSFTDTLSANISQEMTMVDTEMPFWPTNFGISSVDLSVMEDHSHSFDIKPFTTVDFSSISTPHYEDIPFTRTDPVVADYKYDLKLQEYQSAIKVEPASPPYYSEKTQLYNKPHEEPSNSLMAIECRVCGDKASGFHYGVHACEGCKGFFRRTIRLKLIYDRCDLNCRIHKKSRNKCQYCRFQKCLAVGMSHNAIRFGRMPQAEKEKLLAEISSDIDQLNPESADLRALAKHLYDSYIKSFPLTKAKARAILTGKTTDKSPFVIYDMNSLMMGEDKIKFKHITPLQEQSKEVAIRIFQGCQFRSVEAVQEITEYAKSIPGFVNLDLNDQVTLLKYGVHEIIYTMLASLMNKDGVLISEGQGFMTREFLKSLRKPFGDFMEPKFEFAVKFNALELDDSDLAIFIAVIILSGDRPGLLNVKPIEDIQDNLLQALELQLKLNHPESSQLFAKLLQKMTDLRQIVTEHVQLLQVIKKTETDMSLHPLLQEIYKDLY
Kind of series: Transfection assay (luciferase reporter) in CV-1 cells, PPARγ. To be noted: full-length PPAR plasmid, luciferase normalized with β-galactosidase. The procedure:
as §1
as §2, with “The test was performed in four steps consisting of cell inoculation, transfection, treatment of the compounds, and analysis of results.” left out

Another series in a line: MTT assay, cytotoxicity. To be noted: African green monkey, CV-1 cells, read-out: LC50 Cytotoxicity. The procedure: The compounds of Examples 47-97 according to the present invention were tested for cytotoxicity using a MTT assay. MTT is a water-soluble yellow substance, but if it is introduced into living cells, it will be degenerated into a water-insoluble purple crystal due to dehydrogenase contained in mitochondria. If this substance is dissolved in dimethylsulfoxide and then measured for absorbance at 550 nm, cytotoxicity can be assayed. The test method is as follows.
CV-1 cells were first inoculated onto a 96-well plate at a concentration of 5,000 cells/well. The inoculated cells were cultured in a 5% carbon dioxide-containing humidified incubator at 37° C. for 24 hours, and then treated with the inventive compounds at various concentrations. After 24 hours of culture, a MTT reagent was added to the cultured cells. After 15 minutes of culture, the resulting purple crystal was dissolved in dimethylsulfoxide and then measured for absorbance using a microplate reader. From the measured absorbance, cytotoxicity was assayed.
A general note: Tetrazolium assays rely on reduction of a dye to a coloured formazan, in cell work by metabolically active cells.

The target in the next series is T3, PPARδ (Homo sapiens, UniProt Q03181).
T3 sequence (Q03181 1-441): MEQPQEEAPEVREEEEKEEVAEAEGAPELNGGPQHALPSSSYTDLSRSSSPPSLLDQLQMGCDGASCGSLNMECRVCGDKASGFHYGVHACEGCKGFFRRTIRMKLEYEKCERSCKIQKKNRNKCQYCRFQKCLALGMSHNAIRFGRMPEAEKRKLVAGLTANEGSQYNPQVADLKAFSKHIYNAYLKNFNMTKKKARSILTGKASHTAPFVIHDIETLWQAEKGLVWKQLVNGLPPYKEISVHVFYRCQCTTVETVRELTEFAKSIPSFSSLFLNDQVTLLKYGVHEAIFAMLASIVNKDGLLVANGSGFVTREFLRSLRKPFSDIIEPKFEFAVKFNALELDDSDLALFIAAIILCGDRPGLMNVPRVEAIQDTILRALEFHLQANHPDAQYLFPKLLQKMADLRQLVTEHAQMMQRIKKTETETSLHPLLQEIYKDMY
Kind of series: Transfection assay (luciferase reporter) in CV-1 cells, PPARδ. Details: full-length PPARs plasmid DNA; expressed in transfected cells; host or cells: CV-1 cells. To be noted: full-length PPAR plasmid, luciferase normalized with β-galactosidase. Here is the method:
as §1
as §2, with “The test was performed in four steps consisting of cell inoculation, transfection, treatment of the compounds, and analysis of results.” left out

Usually EC50 stands for the concentration at which the effect is half-maximal. A low value points to greater potency. Regarding `CCOC(=O)COc1ccc(SC(Cc2c(F)cccc2Cl)c2sc(-c3ccc(C(F)(F)F)cc3)nc2C)cc1C` (stereo not drawn) [Example 47], the “EC50 PPARα” value on PPARα is given as “ia”. At PPARγ, the “EC50 PPARγ” value was “ia”. In the series “MTT assay, cytotoxicity”, the CC50 at 24 h was more than 100 µM. The EC50 at PPARδ was determined as 0.0065 µM.

Turning to `Cc1cc(SC(CCc2ccccc2)c2sc(-c3ccc(C(F)(F)F)cc3)nc2C)ccc1OCC(=O)O` (stereo not drawn) [Example 68, 2-[4-[1-[2-[4-(trifluoromethyl)phenyl]-4-methylthiazol-5-yl]-3-phenylpropylthio]-2-methylphenoxy]acetic acid], the “EC50 PPARα” value at PPARα was “ia”. The “EC50 PPARγ” value at PPARγ was “ia”. Besides, the CC50 at 24 h in “MTT assay, cytotoxicity” was more than 100 µM. For the same compound, at PPARδ, the midpoint of the response, the EC50, lay at 0.0027 µM.

With `Cc1cc(SC(CCCc2ccccc2)c2sc(-c3ccc(C(F)(F)F)cc3)nc2C)ccc1OCC(=O)O` (stereo not drawn) [Example 70, 2-[4-[1-[2-[4-(trifluoromethyl)phenyl]-4-methylthiazol-5-yl]-4-phenylbutylthio]-2-methylphenoxy]acetic acid], on PPARα, the “EC50 PPARα” value is on record as “ia”. In addition, at PPARγ, the “EC50 PPARγ” value is recorded as “ia”. For the same compound, in “MTT assay, cytotoxicity”, the CC50 at 24 h is 91 µM. In addition, on PPARδ, the EC50 amounted to 0.0061 µM.

`Cc1cc(SC(CCCCc2ccccc2)c2sc(-c3ccc(C(F)(F)F)cc3)nc2C)ccc1OCC(=O)O` (stereo not drawn) [Example 71, 2-[4-[1-[2-[4-(trifluoromethyl)phenyl]-4-methylthiazol-5-yl]-5-phenylpentylthio]-2-methylphenoxy]acetic acid]: the “EC50 PPARα” value at PPARα is recorded as “ia”. Further, the “EC50 PPARγ” value at PPARγ is recorded as “ia”. Moreover, the CC50 at 24 h in “MTT assay, cytotoxicity” was 93 µM. The compound further displayed an EC50 at PPARδ of 0.0388 µM.

As for `Cc1cc(SC(CCCCCc2ccccc2)c2sc(-c3ccc(C(F)(F)F)cc3)nc2C)ccc1OCC(=O)O` (stereo not drawn) [Example 72, 2-[4-[1-[2-[4-(trifluoromethyl)phenyl]-4-methylthiazol-5-yl]-6-phenylhexylthio]-2-methylphenoxy]acetic acid], at PPARα, the “EC50 PPARα” value was “ia”. For the same compound, the “EC50 PPARγ” value on PPARγ is recorded as “ia”. Besides, in the series “MTT assay, cytotoxicity”, the CC50 at 24 h turned out to be 92 µM. At PPARδ, this compound yielded an EC50 of 0.0115 µM.

As to `Cc1cc(SC(CCCCCCCc2ccccc2)c2sc(-c3ccc(C(F)(F)F)cc3)nc2C)ccc1OCC(=O)O` (stereo not drawn) [Example 73, 2-[4-[1-[2-[4-(trifluoromethyl)phenyl]-4-methylthiazol-5-yl]-8-phenyloctylthio]-2-methylphenoxy]acetic acid], at PPARα, the “EC50 PPARα” value is recorded as “ia”. For the same compound, the “EC50 PPARγ” value at PPARγ is “ia”. In addition, the CC50 at 24 h in the series “MTT assay, cytotoxicity” worked out at 94 µM. At PPARδ, the EC50 amounted to 0.0572 µM.

As to `Cc1cc(SC(CCCCCCCCCCc2ccccc2)c2sc(-c3ccc(C(F)(F)F)cc3)nc2C)ccc1OCC(=O)O` (stereo not drawn) [Example 74, 2-[4-[1-[2-[4-(trifluoromethyl)phenyl]-4-methylthiazol-5-yl]-11-phenylundecylthio]-2-methylphenoxy]acetic acid], at PPARα, the “EC50 PPARα” value was “ia”. In addition, the “EC50 PPARγ” value at PPARγ is listed as “ia”. For the same compound, the CC50 at 24 h in “MTT assay, cytotoxicity” was more than 100 µM. The compound also came in with an EC50 on PPARδ of 0.132 µM.

With `Cc1cc(SC(Cc2c(F)cccc2Cl)c2sc(-c3ccc(C(F)(F)F)cc3)nc2C)ccc1OCC(=O)O` (stereo not drawn) [Example 75, 2-[4-[2-(2-chloro-6-fluorophenyl)-1-[2-[4-(trifluoromethyl)phenyl]-4-methylthiazol-5-yl]ethylthio]-2-methylphenoxy]acetic acid], the “EC50 PPARα” value on PPARα is recorded as “ia”. Moreover, the “EC50 PPARγ” value on PPARγ is on record as “ia”. Besides, the CC50 at 24 h in the series “MTT assay, cytotoxicity” was more than 100 µM. The EC50 at PPARδ was determined as 0.0021 µM.

`Cc1cc(SC(Cc2ccc(C#N)cc2)c2sc(-c3ccc(C(F)(F)F)cc3)nc2C)ccc1OCC(=O)O` (stereo not drawn) [Example 76, 2-[4-[2-(4-cyanophenyl)-1-[2-[4-(trifluoromethyl)phenyl]-4-methylthiazol-5-yl]ethylthio]-2-methylphenoxy]acetic acid]: the “EC50 PPARα” value on PPARα is on record as “ia”. At PPARγ, the “EC50 PPARγ” value is given as “ia”. Further, the CC50 at 24 h in the series “MTT assay, cytotoxicity” was more than 100 µM. This compound also had a half-maximal effective concentration (EC50) at PPARδ of 0.0221 µM.

In the case of `Cc1cc(SC(Cc2c(F)c(F)c(F)c(F)c2F)c2sc(-c3ccc(C(F)(F)F)cc3)nc2C)ccc1OCC(=O)O` (stereo not drawn) [Example 80, 2-[4-[1-[2-[4-(trifluoromethyl)phenyl]-4-methylthiazol-5-yl]-2-(perfluorophenyl)ethylthio]-2-methylphenoxy]acetic acid], on PPARα, the “EC50 PPARα” value was “ia”. Besides, the CC50 at 24 h in “MTT assay, cytotoxicity” is more than 100 µM. Also, the response on PPARδ was half-maximal at 0.0464 µM (EC50).

Regarding `Cc1cc(SC(Cc2ccc(Br)cc2)c2sc(-c3ccc(C(F)(F)F)cc3)nc2C)ccc1OCC(=O)O` (stereo not drawn) [Example 81, 2-[4-[2-(4-bromophenyl)-1-[2-[4-(trifluoromethyl)phenyl]-4-methylthiazol-5-yl]ethylthio]-2-methylphenoxy]acetic acid], at PPARγ, the “EC50 PPARγ” value is listed as “ia”. In “MTT assay, cytotoxicity”, the CC50 at 24 h is 92 µM. This compound showed an EC50 on PPARδ of 0.0115 µM.

Turning to `Cc1cc(SC(Cc2c(F)cccc2C(F)(F)F)c2sc(-c3ccc(C(F)(F)F)cc3)nc2C)ccc1OCC(=O)O` (stereo not drawn) [Example 82, 2-[4-[2-[2-fluoro-6-(trifluoromethyl)phenyl]-1-[2-[4-(trifluoromethyl)phenyl]-4-methylthiazol-5-yl]ethylthio]-2-methylphenoxy]acetic acid], the “EC50 PPARα” value at PPARα was “ia”. The CC50 at 24 h in the series “MTT assay, cytotoxicity” is more than 100 µM. This compound showed a 50% effective concentration (EC50) at PPARδ of 0.0026 µM.
